Measurements from ChEMBL document CHEMBL1133412, “Rational design, synthesis and structure-activity relationships of antitumor (E)-2-benzylidene-1-tetralones and (E)-2-benzylidene-1-indanones” (Bioorg Med Chem Lett, 2000).

Tests used:
A549 = test: Cytotoxicity evaluated against A549 tumor cell lines; significant activity; format: functional, cell-based; settings: Homo sapiens
B16 = test: Cytotoxicity was evaluated against B16 tumor cell lines; Significant activity; format: functional, cell-based; settings: Mus musculus
CCRF-CEM = test: Cytotoxicity evaluated against CEM tumor cell lines; Significant activity; format: functional, cell-based; settings: Homo sapiens
NCI-H596 = test: Cytotoxicity evaluated against H596 tumor cell lines; Significant activity; format: functional, cell-based; settings: Homo sapiens
NCI-H292 = test: Cytotoxicity evaluated against H292 tumor cell lines; Significant activity; format: functional, cell-based; settings: Homo sapiens
HL-60 = test: Cytotoxicity evaluated against HL-60 tumor cell lines; Significant activity; format: functional, cell-based; settings: Homo sapiens
Jurkat = test: In vitro test for antitumor activity against human Jurkat cell line using a formazan dye (MTT) conversion assay.; format: functional, cell-based
K562 = test: Cytotoxicity evaluated against K562 tumor cell lines; Significant activity; format: functional, cell-based; settings: Homo sapiens
L1210 = test: Cytotoxicity evaluated against L1210 tumor cell lines; Significant activity; format: functional, cell-based; settings: Mus musculus
MCF7 = test: Cytotoxicity evaluated against MCF-7 tumor cell lines; Significant activity; format: functional, cell-based; settings: Homo sapiens
MOLT-4 = test: Cytotoxicity was evaluated against Molt-4 tumor cell lines; format: functional, cell-based; settings: Homo sapiens
NIH3T3 = test: Cytotoxicity evaluated against NIH3T3 tumor cell lines; Significant activity; format: functional, cell-based; settings: Mus musculus
WI-38 [1] = test: Cytotoxicity was evaluated against WI38 tumor cell lines; Significant activity; format: functional, cell-based; settings: Homo sapiens
WIL2 = test: Cytotoxicity evaluated against WIL2 tumor cell lines; Significant activity; format: functional, cell-based; settings: Homo sapiens
Tumor cell line = test: In vivo testing against tumor cells that were placed in the polyvinylidene fluoride (PVDF) hollow fibers of capsules and then implanted in to mice intraperitoneally or subcutaneously; format: functional, Mus musculus
WI-38 [2] = test: Cytotoxicity evaluated against WI38 tumor cell lines; Significant activity; format: functional, cell-based; settings: Homo sapiens

For COc1cccc(/C=C2\CCc3cc(OC)c(OC)cc3C2=O)c1, the Cytotoxicity (A549) was “Significant activity”, the Cytotoxicity (B16) was “Significant activity” and the Cytotoxicity (CCRF-CEM) was “Significant activity”. For the same compound, the Cytotoxicity (NCI-H596) was “Significant activity”, the Cytotoxicity (NCI-H292) was “Significant activity” and the Cytotoxicity (HL-60) was “Significant activity”. The IC50 (Jurkat) was 5 µM, the Cytotoxicity (K562) was “Significant activity” and the Cytotoxicity (L1210) was “Significant activity”. For the same compound, the Cytotoxicity (MCF7) was “Significant activity”, the Cytotoxicity (MOLT-4) was “Significant activity” and the Cytotoxicity (NIH3T3) was “Significant activity”. The Cytotoxicity (WI-38 [1]) was “Significant activity” and the Cytotoxicity (WIL2) was “Significant activity”.

For COc1cc2c(c([N+](=O)[O-])c1O)C/C(=C\c1cc(C)c(O)c(C)c1)C2=O, the Cytotoxicity (A549) was “Significant activity”, the Cytotoxicity (B16) was “Significant activity” and the Cytotoxicity (CCRF-CEM) was “Significant activity”. For the same compound, the Cytotoxicity (NCI-H596) was “Significant activity”, the Cytotoxicity (NCI-H292) was “Significant activity” and the Cytotoxicity (HL-60) was “Significant activity”. For the same compound, the IC50 (Jurkat) was 9.3 µM, the Cytotoxicity (K562) was “Significant activity” and the Cytotoxicity (L1210) was “Significant activity”. For the same compound, the Cytotoxicity (MCF7) was “Significant activity”, the Cytotoxicity (MOLT-4) was “Significant activity” and the Cytotoxicity (NIH3T3) was “Significant activity”. For the same compound, the Cytotoxicity (WI-38 [1]) was “Significant activity” and the Cytotoxicity (WIL2) was “Significant activity”.

COc1cc2c(cc1OC)C(=O)/C(=C/c1cc(C)cc(C)c1)C2 was tested, and the Cytotoxicity (A549) was “Significant activity”, the Cytotoxicity (B16) was “Significant activity” and the Cytotoxicity (CCRF-CEM) was “Significant activity”. For the same compound, the Cytotoxicity (NCI-H596) was “Significant activity”, the Cytotoxicity (NCI-H292) was “Significant activity” and the Cytotoxicity (HL-60) was “Significant activity”. For the same compound, the IC50 (Jurkat) was 0.08 µM, the Cytotoxicity (K562) was “Significant activity” and the Cytotoxicity (L1210) was “Significant activity”. For the same compound, the Cytotoxicity (MCF7) was “Significant activity”, the Cytotoxicity (MOLT-4) was “Significant activity” and the Cytotoxicity (NIH3T3) was “Significant activity”. For the same compound, the “IP+SC score” value (Tumor cell line) was <20, the Cytotoxicity (WI-38 [2]) was “Significant activity” and the Cytotoxicity (WIL2) was “Significant activity”.
